Reference: PubChem BioAssay (NCI)
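These data come from cells grown in 96-well plates and exposed to compound for 48 hours at five concentrations. Here, GI50 denotes the concentration required for 50% inhibition of growth. TGI: concentration producing complete growth inhibition.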

How the values were obtained:
Experiment in all cases: NCI tumour cell line growth inhibition, 48 h
[1] = test system: CAKI-1 renal
[2] = test system: HL-60(TB) leukemia
[3] = test system: K-562 leukemia
[4] = test system: RXF 393 renal
[5] = test system: TK-10 renal
[6] = test system: UACC-62 melanoma
[7] = test system: NCI-H226 lung
[8] = test system: SK-MEL-5 melanoma
[9] = test system: MOLT-4 leukemia
[10] = test system: MDA-MB-435

Row | Compound | TGI [1] [µM] | TGI [2] [µM] | TGI [3] [µM] | TGI [4] [µM] | TGI [5] [µM] | TGI [6] [µM] | TGI [7] [µM] | TGI [8] [µM] | TGI [9] [µM] | GI50 [1] [µM] | GI50 [10] [µM] | TGI [10] [µM] | GI50 [4] [µM] | GI50 [6] [µM] | GI50 [7] [µM] | GI50 [8] [µM] | GI50 [9] [µM] | GI50 [2] [µM] | GI50 [3] [µM] | GI50 [5] [µM]
1 | Clc1cc(Cl)c2c(Cl)cc(Cl)c3c2c1N=S=N3 | > 100 | > 100 | > 100 | > 100 | > 100 | > 100 | > 100 | > 100 | > 100 |  |  |  |  |  |  |  |  |  |  | 
2 | CN1CCN(C)C1c1cccc(C2N(C)CCN2C)c1 |  | > 100 | > 100 | > 100 |  | > 100 | > 100 |  | > 100 |  |  |  |  |  |  |  |  |  |  | 
3 | CC(=O)OCCOCBr | > 100 | > 100 | > 100 | > 100 | > 100 | > 100 | > 100 | > 100 |  |  |  |  |  |  |  |  |  |  |  | 
4 | O=C1c2ccccc2-c2c1c1ccccc1c(=O)n2CCNCCCNCCn1c2c(c3ccccc3c1=O)C(=O)c1ccccc1-2 | 1.24 |  |  | 0.577 |  | 1.16 | 1.66 | 7.9 | > 50 | 0.563 | 0.115 | 1.1 | < 0.005 | 0.362 | 0.64 | 1.75 | < 0.005 |  |  | 
5 | CC(O)CN1C(=O)NC(Cc2ccccc2)C1=O (stereo not drawn) | > 100 | > 100 |  | > 100 | > 100 |  | > 100 |  |  |  |  |  |  |  |  |  |  |  |  | 
6 | O=C(c1ccccc1)[C@H]1Nc2cnccc2C2c3ccccc3CC21 (stereo partly drawn) | > 73.6 | 23.2 | 15.6 | 50.4 | > 81.9 | > 58.8 | 20.2 | 10.1 | 23.1 |  |  |  |  |  |  |  |  |  |  | 
7 | CN(C)c1nc(-c2cccs2)n2nc(-c3ccc(Cl)cc3)cc2n1 |  | > 100 | > 100 | > 100 |  | > 100 | > 100 |  | > 100 |  |  |  | 3.39 | 5.92 | 2.73 |  | > 100 | > 100 | > 100 | 
8 | COc1ccc(C(=O)C(C(=O)CCC(=O)Nc2cccc(C(F)(F)F)c2)c2ccccc2)cc1 (stereo not drawn) | > 100 | > 100 | > 100 |  | > 100 | > 100 | > 100 | > 100 | > 100 |  |  |  |  |  |  |  |  |  |  | 
9 | NC1=NC(=O)C(CC(=O)Nc2ccc([N+](=O)[O-])cc2[N+](=O)[O-])S1 (stereo not drawn) |  | > 100 |  | > 100 | > 100 | > 100 | > 100 | > 100 | > 100 |  |  |  |  |  |  |  |  |  |  | 
10 | O=C1c2ccccc2-c2cccc3ccc(Cc4ccccc4)c1c23 |  | > 100 | > 100 | > 100 | > 100 | > 100 |  | > 100 | > 100 |  |  |  |  |  |  |  |  |  |  | 
11 | COC(=O)/C(=N\NC(=S)NN)C(C(=O)C(=O)Nc1ccccc1C(N)=O)c1nc2ccccc2[nH]c1=O (stereo not drawn) | > 100 |  | > 100 | > 100 | > 100 | > 100 | > 100 | > 100 | > 100 |  |  |  |  |  |  |  |  |  |  | 
12 | CC/C=C\C/C=C\C1CC(=O)NCCCNCCCCN1 (stereo not drawn) | > 100 | > 100 |  | 70.4 | > 100 |  | > 100 | > 100 |  |  |  |  |  |  |  |  |  |  |  | 
13 | CC1CCCC(C(=O)/C(=C/c2cccc(Cl)c2)C(=O)C(=O)O)C1 (stereo not drawn) | > 100 | 47.9 | 47.4 |  | > 100 | > 100 | > 100 | > 100 | 49.8 |  |  |  |  |  |  |  |  |  |  | 
14 | CC(=O)c1c(C)n([O-])c2cc(C)c(C)cc2[n+]1=O | > 100 | > 100 | > 100 |  | > 100 | > 100 | > 100 | > 100 | > 100 |  |  |  |  |  |  |  |  |  |  | 
15 | N#CC(C#N)=Cc1cccc(Oc2ccccc2)c1 | 50.4 | 47.3 | > 95.4 | 33.4 | > 70.6 | 53.3 | > 69.1 | 36.6 | 78.7 |  |  |  |  |  |  |  |  |  |  | 
16 | COc1ccc(/C=C/C(=O)c2sc(-n3nc(-c4ccccc4)cc3-c3ccccc3)nc2C)cc1OC | > 100 | 62.2 | 83.3 | > 100 | > 100 | 52.2 | > 100 |  | 64.8 |  |  |  |  |  |  |  |  |  |  | 
17 | NC(CCSCC(F)F)C(=O)O (stereo not drawn) | > 100 | > 100 | > 100 | > 100 | > 100 | > 100 | > 100 | > 100 | > 100 |  |  |  |  |  |  |  |  |  |  | 
18 | COC(=O)NC/C=C\c1nc(CC/C=C\C(=O)OC2CC3CC(=O)O[C@@H](/C=C/CC(C)C)C[C@@H]4CCC(C)C(C[C@@H](OC)CC(C2)O3)O4)co1 (stereo partly drawn) | 70.6 |  | 12.2 |  |  | 25.6 | > 100 | 19 |  | < 0.01 | < 0.01 | 50.1 |  | 0.412 | 24.4 | < 0.01 |  |  | < 0.01 | 
19 | CC1(C)OC(=O)C=C([O-])O1.CC1(C)OC(=O)C=C([O-])O1.O=c1c(O)c(-c2ccc([O-])cc2[O-])oc2cc(O)cc(O)c12.[Ti+4] | > 100 | > 100 | > 100 | 93.3 | > 100 | > 100 | > 100 | > 100 | > 100 |  |  |  | 36.7 | 33.1 |  |  | 31.6 |  |  | 
20 | CCOC(=O)[C@@H](C)C[C@H](Cc1ccccc1)NC(=O)c1csc([C@@H](C[C@H](C(C)C)N(C)C(=O)[C@@H](NC(=O)[C@H]2CCCCN2C)C(C)(C)C)OC(C)=O)n1 | > 16.7 | < 0.00167 | > 16.7 | > 16.7 | > 16.7 | > 16.7 | 0.104 | 0.00254 | > 16.7 | < 0.00167 |  |  | < 0.00167 | < 0.00167 | < 0.00167 | < 0.00167 | 0.00217 | < 0.00167 | < 0.00167 | 0.117
21 | COc1ccc2c(c1)C=CC(C#N)N2C(=O)c1ccccc1 (stereo not drawn) | > 100 |  | > 100 |  | > 100 | > 100 | > 100 | 4.68 | > 100 | < 0.01 |  |  |  | < 0.01 | 4.16 | < 0.01 | < 0.01 | < 0.01 | < 0.01 | 33.7
